How the values were obtained:
[1] = system: panel of haematalogical cancer cell lines; experiment: Compound A with BTK inhibitors, 72-hour in vitro proliferation assays; type: cell-based; conditions: combination Compound A × listed BTK inhibitor, 72-hour proliferation
[2] = system: panel of breast cancer cell lines; experiment: Compound A with targeted agents and chemotherapies, 72-hour in vitro proliferation assays; type: cell-based; conditions: compound A × partner, 72-hour proliferation

CC#CC(=O)N1CCC[C@H]1c1nc(-c2ccc(C(=O)Nc3ccccn3)cc2)c2c(N)nccn12 [Acalabrutinib]
Best CI ([1]; HBL-1 cells): 0.09 | Best CI Level ([1]; HBL-1 cells): 55 | Bliss Volume ([1]; HBL-1 cells): 4.86 | HSA volume ([1]; HBL-1 cells): 9.39 | Loewe Volume ([1]; HBL-1 cells): 9.09 | Synergy Score ([1]; HBL-1 cells): 7.28 | Best CI ([1]; OCI-Ly10 cells): 0.69 | Best CI Level ([1]; OCI-Ly10 cells): 80 | Bliss Volume ([1]; OCI-Ly10 cells): −1.82 | HSA volume ([1]; OCI-Ly10 cells): 0.62 | Loewe Volume ([1]; OCI-Ly10 cells): −0.84 | Synergy Score ([1]; OCI-Ly10 cells): 1.59 | Best CI ([1]; SU-DHL-2 cells): 0.39 | Best CI Level ([1]; SU-DHL-2 cells): 20 | Bliss Volume ([1]; SU-DHL-2 cells): 1.10 | HSA volume ([1]; SU-DHL-2 cells): 1.30 | Loewe Volume ([1]; SU-DHL-2 cells): 2.29 | Synergy Score ([1]; SU-DHL-2 cells): 1.76 | Best CI ([1]; SU-DHL-4 cells): 0.90 | Best CI Level ([1]; SU-DHL-4 cells): 80 | Bliss Volume ([1]; SU-DHL-4 cells): 0.66 | HSA volume ([1]; SU-DHL-4 cells): −3.54 | Loewe Volume ([1]; SU-DHL-4 cells): −2.10 | Synergy Score ([1]; SU-DHL-4 cells): 1.02 | Best CI ([1]; SU-DHL-8 cells): 0.79 | Best CI Level ([1]; SU-DHL-8 cells): 20 | Bliss Volume ([1]; SU-DHL-8 cells): 3.28 | HSA volume ([1]; SU-DHL-8 cells): −5.31 | Loewe Volume ([1]; SU-DHL-8 cells): −3.08 | Synergy Score ([1]; SU-DHL-8 cells): 0.52 | Best CI ([1]; TMD8 cells): 0.09 | Best CI Level ([1]; TMD8 cells): 80 | Bliss Volume ([1]; TMD8 cells): 2.07 | HSA volume ([1]; TMD8 cells): 3.89 | Loewe Volume ([1]; TMD8 cells): 2.90 | Synergy Score ([1]; TMD8 cells): 3.60 | Best CI ([1]; U-2932 cells): 0.49 | Best CI Level ([1]; U-2932 cells): 65 | Bliss Volume ([1]; U-2932 cells): 5.67 | HSA volume ([1]; U-2932 cells): 7.07 | Loewe Volume ([1]; U-2932 cells): 7.67 | Synergy Score ([1]; U-2932 cells): 4.74

CC(=O)c1c(C)c2cnc(Nc3ccc(N4CCNCC4)cn3)nc2n(C2CCCC2)c1=O [PD-0332991]
Best CI ([2]; AU565 cell line): 1.01 | Bliss Volume ([2]; AU565 cell line): −1.48 | HSA volume ([2]; AU565 cell line): −4.75 | Loewe Volume ([2]; AU565 cell line): −4.99 | Synergy Score ([2]; AU565 cell line): 1.50 | Best CI ([2]; BT-20 cell line): 1.30 | Bliss Volume ([2]; BT-20 cell line): −2.05 | HSA volume ([2]; BT-20 cell line): −0.62 | Loewe Volume ([2]; BT-20 cell line): −1.20 | Synergy Score ([2]; BT-20 cell line): 3.95 | Best CI ([2]; BT-549 cell line): 1.07 | Bliss Volume ([2]; BT-549 cell line): 5.11 | HSA volume ([2]; BT-549 cell line): 3.60 | Loewe Volume ([2]; BT-549 cell line): 5.15 | Synergy Score ([2]; BT-549 cell line): 3.67 | Best CI ([2]; CAL-51 cell line): 0.82 | Bliss Volume ([2]; CAL-51 cell line): −3.23 | HSA volume ([2]; CAL-51 cell line): −1.09 | Loewe Volume ([2]; CAL-51 cell line): −1.26 | Synergy Score ([2]; CAL-51 cell line): 0.38 | Best CI ([2]; CAL-85-1 cell line): 0.75 | Bliss Volume ([2]; CAL-85-1 cell line): −7.60 | HSA volume ([2]; CAL-85-1 cell line): −8.20 | Loewe Volume ([2]; CAL-85-1 cell line): −7.47 | Synergy Score ([2]; CAL-85-1 cell line): 0.30 | Best CI ([2]; CAL-120 cell line): 1.81 | Bliss Volume ([2]; CAL-120 cell line): −0.11 | HSA volume ([2]; CAL-120 cell line): −7.17 | Loewe Volume ([2]; CAL-120 cell line): −6.92 | Synergy Score ([2]; CAL-120 cell line): 0.11 | Best CI ([2]; CAL-148 cell line): 0.21 | Bliss Volume ([2]; CAL-148 cell line): −2.31 | HSA volume ([2]; CAL-148 cell line): −5.69 | Loewe Volume ([2]; CAL-148 cell line): −4.24 | Synergy Score ([2]; CAL-148 cell line): 0.81 | Best CI ([2]; CAMA-1 cell line): 0.49 | Bliss Volume ([2]; CAMA-1 cell line): −4.96 | HSA volume ([2]; CAMA-1 cell line): −11.74 | Loewe Volume ([2]; CAMA-1 cell line): −11.95 | Synergy Score ([2]; CAMA-1 cell line): 0.99 | Best CI ([2]; DU-4475 cell line): 0.97 | Bliss Volume ([2]; DU-4475 cell line): 0.05 | HSA volume ([2]; DU-4475 cell line): −1.86 | Loewe Volume ([2]; DU-4475 cell line): −0.06 | Synergy Score ([2]; DU-4475 cell line): 0.30 | Best CI ([2]; EVSA-T cell line): 0.77 | Bliss Volume ([2]; EVSA-T cell line): −4.20 | HSA volume ([2]; EVSA-T cell line): −6.37 | Loewe Volume ([2]; EVSA-T cell line): −5.67 | Synergy Score ([2]; EVSA-T cell line): 0.21 | Best CI ([2]; HCC38): 0.19 | Bliss Volume ([2]; HCC38): −13.23 | HSA volume ([2]; HCC38): −17.15 | Loewe Volume ([2]; HCC38): −16.79 | Synergy Score ([2]; HCC38): 0.01 | Best CI ([2]; HCC70): 0.68 | Bliss Volume ([2]; HCC70): 4.80 | HSA volume ([2]; HCC70): 3.64 | Loewe Volume ([2]; HCC70): 4.83 | Synergy Score ([2]; HCC70): 8.66 | Best CI ([2]; HCC1143): 0.75 | Bliss Volume ([2]; HCC1143): −2.16 | HSA volume ([2]; HCC1143): −3.77 | Loewe Volume ([2]; HCC1143): −0.95 | Synergy Score ([2]; HCC1143): 1.96 | Best CI ([2]; HCC1569): 0.78 | Bliss Volume ([2]; HCC1569): 8.10 | HSA volume ([2]; HCC1569): 4.93 | Loewe Volume ([2]; HCC1569): 8.19 | Synergy Score ([2]; HCC1569): 5.78 | Best CI ([2]; HCC1806): 0.02 | Bliss Volume ([2]; HCC1806): −1.37 | HSA volume ([2]; HCC1806): −4.31 | Loewe Volume ([2]; HCC1806): −1.04 | Synergy Score ([2]; HCC1806): 0.99 | Best CI ([2]; HCC1937): 0.28 | Bliss Volume ([2]; HCC1937): 14.96 | HSA volume ([2]; HCC1937): 11.05 | Loewe Volume ([2]; HCC1937): 14.74 | Synergy Score ([2]; HCC1937): 21.45 | Best CI ([2]; HCC1954): 0.47 | Bliss Volume ([2]; HCC1954): −7.91 | HSA volume ([2]; HCC1954): −8.72 | Loewe Volume ([2]; HCC1954): −7.32 | Synergy Score ([2]; HCC1954): 1.20 | Best CI ([2]; HCC2218): 1.10 | Bliss Volume ([2]; HCC2218): −0.96 | HSA volume ([2]; HCC2218): −1.25 | Loewe Volume ([2]; HCC2218): −3.22 | Synergy Score ([2]; HCC2218): 7.27 | Best CI ([2]; HDQ-P1): 0.36 | Bliss Volume ([2]; HDQ-P1): 0.47 | HSA volume ([2]; HDQ-P1): −6.53 | Loewe Volume ([2]; HDQ-P1): −11.86 | Synergy Score ([2]; HDQ-P1): 0.17 | Best CI ([2]; HMC-1-8): 0.47 | Bliss Volume ([2]; HMC-1-8): 13.91 | HSA volume ([2]; HMC-1-8): 7.82 | Loewe Volume ([2]; HMC-1-8): 8.09 | Synergy Score ([2]; HMC-1-8): 12.76
